Assay results reported in US8722910B2, “Diyne compositions” (Evolva AG, priority 2009, dated 2014).
In brackets after ≈: the same amount, converted by molar mass. Like-named read-outs stand apart in the source and are kept apart here.

Legend:
[1] = system: Enterobacter faecalis 29212; assay: In vitro Antibacterial Activity; assay type: cell-based
Escherichia coli 700 = assay: In vitro Antibacterial Activity; assay type: cell-based
Candida albicans = assay: In vitro antifungal activity vs. yeasts (MIC/MFC); assay type: cell-based; conditions: Candida albicans (n = 8); 90% inhibition endpoint
C. glabrata [2] = assay: In vitro antifungal activity vs. yeasts (MIC/MFC); assay type: cell-based; conditions: Nakaseomyces glabratus; C. glabrata (n = 1); 90% inhibition endpoint
C. lusitaniae [3] = assay: In vitro antifungal activity vs. yeasts (MIC/MFC); assay type: cell-based; conditions: Clavispora lusitaniae
C. lipolytica = assay: In vitro antifungal activity vs. yeasts (MIC/MFC); assay type: cell-based; conditions: Yarrowia lipolytica
C. guilliermondii = assay: In vitro antifungal activity vs. yeasts (MIC/MFC); assay type: cell-based; conditions: Meyerozyma guilliermondii; C. guilliermondii (n = 1); 90% inhibition endpoint
C. parapsilosis [4] = assay: In vitro antifungal activity vs. yeasts (MIC/MFC); assay type: cell-based; conditions: Lodderomyces parapsilosis; C. parapsilosis (n = 2); 90% inhibition endpoint
C. krusei [5] = assay: In vitro antifungal activity vs. yeasts (MIC/MFC); assay type: cell-based; conditions: Pichia kudriavzevii; C. krusei (n = 1); 90% inhibition endpoint
Malassezia furfur = assay: In vitro antifungal activity vs. yeasts (MIC/MFC); assay type: cell-based; conditions: Malassezia furfur
all Candida strains = assay: MIC range over all Candida strains tested; assay type: cell-based; conditions: Table 13 strains
ergosterol biosynthesis = assay: 13C-acetate incorporation into ergosterol; assay type: cell-based, Candida albicans; conditions: drug at about its MIC, added after the first 15 minutes
C. albicans [6] = assay: Effect on the morphology of growing Candida albicans cultures; assay type: cell-based; conditions: inhibiting concentrations
C. albicans [7] = assay: Rat model of systemic candidiasis, single intravenous infusion, liver burden; assay type: in vivo; conditions: rats
C. albicans [8] = assay: Rat model of systemic candidiasis, single oral administration, kidney burden; assay type: in vivo; conditions: rats
C. dubliniensis = assay: Susceptibility of clinical isolates (MIC, broth dilution); assay type: cell-based; conditions: Candida dubliniensis; C. dubliniensis (n = 25); M27-A3, 24 hrs; read at 50% inhibition (potassium salt, Voriconazole), 100% (Amphotericin), MEC (Caspofungin); read-out: MIC90
Method: (§1) The efficacy of compound IV″ was investigated on 563 clinical isolates of 33 human fungal pathogens. […] For species with n≧10, the MIC90 (MIC, minimal inhibitory concentration) is given as ng/ml. For species with n≦10, the MIC range is given as ng/ml. 24 h and 48 h reads are indicated (Table 1).
(§2) The in vitro efficacy of antifungal compounds is determined in susceptibility assays, which are indicative for the spectrum and potency of a compound. Susceptibilities are reported as minimal inhibitory concentrations (MIC, as ng/ml or μg/ml) required to inhibit growth to a defined degree compared to the drug free control. The MIC90 defines the MIC required to inhibit growth for ≧90% of the strains of a population tested.
(§3) The MIC90 was calculated for the indicated species.

C. glabrata [9] = assay: as above; assay type: cell-based; conditions: Nakaseomyces glabratus
Method: as §1, §2, §3

C. krusei [10] = assay: as above; assay type: cell-based; conditions: Pichia kudriavzevii; C. krusei (n = 27); M27-A3, 24 hrs; read at 50% inhibition (potassium salt, Voriconazole), 100% (Amphotericin), MEC (Caspofungin); read-out: MIC90
Method: as §1, §2, §3

C. lusitaniae [11] = assay: as above; assay type: cell-based; conditions: Clavispora lusitaniae; C. lusitaniae (n = 24); M27-A3, 24 hrs; read at 50% inhibition (potassium salt, Voriconazole), 100% (Amphotericin), MEC (Caspofungin); read-out: MIC90
Method: as §1, §2, §3

C. parapsilosis [12] = assay: as above; assay type: cell-based; conditions: Lodderomyces parapsilosis
Method: as §1, §2, §3

C. tropicalis = assay: as above; assay type: cell-based; conditions: Candida tropicalis; C. tropicalis (n = 35); M27-A3, 24 hrs; read at 50% inhibition (potassium salt, Voriconazole), 100% (Amphotericin), MEC (Caspofungin); read-out: MIC90
Method: as §1, §2, §3

[13] = system: C. glabrata, Fluconazole, Voriconazole, Itraconazole and/or Caspofungin resistant isolates; assay: Susceptibility of resistant clinical isolates (MIC, broth dilution); assay type: cell-based; conditions: Nakaseomyces glabratus; C. glabrata resistant (n = 21): isolates resistant to Fluconazole, Itraconazole, Voriconazole and Caspofungin; read-out: MIC90
Method: as §1, §3

Coccidioides spp. = assay: microbe, parasite or virus in culture; assay type: cell-based; conditions: Coccidioides, 48 h
B. dermatitidis = assay: Susceptibility of clinical dimorphic fungi (MIC); assay type: cell-based; conditions: Blastomyces dermatitidis; B. dermatitidis (n = 30); CLSI M38-A2; 50% growth reduction; MIC read at 96 h
H. capsulatum = assay: microbe, parasite or virus in culture; assay type: cell-based; conditions: Histoplasma capsulatum, 120 h
C. albicans [14] = assay: Fatty acid competition (antagonism) in 96-well plates; conditions: 48 h
[15] = system: Staphylococcus aureus 29213; assay: In vitro Antibacterial Activity; assay type: cell-based
[16] = Stability of diyne salts on storage (HPLC content); assay type: physicochemical
Method: Potassium (Z)-14-(furan-2-yl)tetradeca-9-en-11,13-diynoate was kept as a crystalline solid for 6 month at 2-8° C. The content of potassium (Z)-14-(furan-2-yl)tetradeca-9-en-11,13-diynoate was determined by HPLC against a reference sample kept at −20° C. After 6 months of storage characteristics such as colour, water content, XRPD profile, of the solid had not changed and it was still a beige solid. […] Also no change in the impurity profile was observed after 6 months storage.
Potassium (Z)-14-(furan-2-yl)tetradeca-9-en-11,13-diynoate was also kept as a crystalline solid for 6 month at 25° C., 60% RH. Analysis was performed as described above. After 6 months of storage characteristics of the solid has not changed and it was still a beige solid. […] Also no change in the impurity profile was observed after 6 months storage.
Potassium (Z)-14-(furan-2-yl)tetradeca-9-en-11,13-diynoate was also kept as a crystalline solid for 6 month at 40° C., 75% RH. Analysis was performed as described above. After 6 months of storage the appearance of the solid had changed to a brown solid. Furthermore, a decrease in the content of potassium (Z)-14-(furan-2-yl)tetradeca-9-en-11,13-diynoate to 96% was observed as analysed by HPLC.
Sodium (Z)-14-(furan-2-yl)tetradeca-9-en-11,13-diynoate was kept as an amorphous solid at room temperature. […] Furthermore the salt was dissolved in an aqueous solution and already after few days the content of sodium (Z)-14-(furan-2-yl)tetradeca-9-en-11,13-diynoate was reduced by 35%, thus proving strong instability of the amorphous salt form.

C. albicans [17] = assay: Susceptibility of clinical isolates (MIC, broth dilution); assay type: cell-based; conditions: Candida albicans; C. albicans (n = 20); M27-A3, 24 hrs; read at 50% inhibition (potassium salt, Voriconazole), 100% (Amphotericin), MEC (Caspofungin); read-out: MIC90
Method: as §1, §2, §3

A. flavus = assay: Susceptibility of clinical Aspergillus isolates (MIC); assay type: cell-based; conditions: Aspergillus flavus; A. flavus (n = 2); CLSI M38-A2; 50% growth inhibition; 24 h; read-out: MIC50
Method: as §1
(§4) Susceptibilities were determined according to the CLSI reference method M38-A2.

A. fumigatus = assay: as above; assay type: cell-based; conditions: Aspergillus fumigatus; A. fumigatus (n = 20); CLSI M38-A2; 50% growth inhibition; 24 h; read-out: MIC50
Method: as §1, §4

A. nidulans = assay: as above; assay type: cell-based; conditions: 24 h
Method: as §1, §4

A. niger = assay: as above; assay type: cell-based; conditions: A. niger (n = 6), CLSI M38-A2, 50% growth inhibition, 24 h, read-out: MIC50
Method: as §1, §4

A. terreus = assay: as above; assay type: cell-based; conditions: Aspergillus terreus; A. terreus (n = 5); CLSI M38-A2; 50% growth inhibition; 24 h; read-out: MIC50
Method: as §1, §4

A. versicolor = assay: as above; assay type: cell-based; conditions: Aspergillus versicolor; A. versicolor (n = 3); CLSI M38-A2; 50% growth inhibition; 24 h; read-out: MIC50
Method: as §1, §4

## CC1(C)S[C@@H]2[C@H](NC(=O)[C@H](N)c3ccccc3)C(=O)N2[C@H]1C(=O)O [Ampicillin, reference compound]
[1]
  MIC90: 0.78 µg/mL (≈ 2.23 µM)
Escherichia coli 700
  MIC90: 3.12 µg/mL (≈ 8.94 µM)

## OC(Cn1cncn1)(Cn1cncn1)c1ccc(F)cc1F [Fluconazole, reference compound]
Candida albicans
  MIC: 1 µg/mL (≈ 3.27 µM)
C. glabrata [2]
  MIC: 2 µg/mL (≈ 6.53 µM)
C. lusitaniae [3]
  MIC: 0.125 µg/mL (≈ 0.408 µM)
C. lipolytica
  MIC: 0.125 µg/mL (≈ 0.408 µM)
C. guilliermondii
  MIC: 4 µg/mL (≈ 13.1 µM)
C. parapsilosis [4]
  MIC: 1 µg/mL (≈ 3.27 µM)
C. krusei [5]
  MIC: 16 µg/mL (≈ 52.2 µM)
Malassezia furfur
  MIC: 0.125 µg/mL (≈ 0.408 µM)
All Candida strains
  MIC range for all Candida strains: 0.125 to 16 µg/mL
Ergosterol biosynthesis
  net biosynthesis of ergosterol (13C-acetate incorporation): inhibited the incorporation of acetate into ergosterol
C. albicans [6]; microscopy
  effect on hyphal tube formation: did not affect hyphal tube formation
C. albicans [6]; microscopy and MTT
  effect on cell growth: permitted fungal growth (albeit at a reduced rate)
C. albicans [7]; liver, vs vehicle at 24 hours, dose not given
  reduction of tissue burden (cfu/g tissue), comparator: 93%
C. albicans [8]; vs vehicle at 24 hours, dose not given
  reduction of tissue burden (cfu/g tissue), comparator: 90%

## CC[C@H](C)C[C@H](C)CCCCCCCCC(=O)N[C@H]1C[C@@H](O)[C@@H](NCCN)NC(=O)[C@@H]2[C@@H](O)CCN2C(=O)[C@H]([C@H](O)CCN)NC(=O)[C@H]([C@H](O)[C@@H](O)c2ccc(O)cc2)NC(=O)[C@@H]2C[C@@H](O)CN2C(=O)[C@H]([C@@H](C)O)NC1=O [Caspofungin]
C. dubliniensis
  MIC90: 1 µg/mL
C. glabrata [9]; C. glabrata (n = 25), M27-A3, 24 hrs, read at 50% inhibition (potassium salt, Voriconazole), 100% (Amphotericin), MEC (Caspofungin), read-out: MIC90
  MIC90: 2 µg/mL
C. krusei [10]
  MIC90: 2 µg/mL
C. lusitaniae [11]
  MIC90: 2 µg/mL
C. parapsilosis [12]; C. parapsilosis (n = 37), M27-A3, 24 hrs, read at 50% inhibition (potassium salt, Voriconazole), 100% (Amphotericin), MEC (Caspofungin), read-out: MIC90
  MIC90: 8 µg/mL
C. tropicalis
  MIC90: 1 µg/mL
[13]
  MIC90: 2 µg/mL (≈ 1.83 µM)
Coccidioides spp.
  MIC90: 0.5 µg/mL (≈ 0.457 µM)
B. dermatitidis
  MIC90: 4 µg/mL (≈ 3.66 µM)
H. capsulatum
  MIC90: 2 µg/mL (≈ 1.83 µM)
C. albicans [14]
  effect of oleic acid / stearic acid on susceptibility: oleic acid did not decrease the susceptibility

## Gentamicin [reference compound]
[15]
  MIC90: Gentamicin—0.78 μg/ml

## O=C([O-])CCCCCCC/C=C\C#CC#Cc1ccco1.[Na+] [Compound V″, sodium (Z)-14-(furan-2-yl)tetradeca-9-en-11,13-diynoate]
C. albicans [7]; single intravenous infusion 12 mg/kg, 24 h
  decrease of liver fungal burden (CFU per gram tissue): 93%
C. albicans [8]; single oral dose 17 mg/kg, 6 h
  decrease of kidney fungal burden (CFU per gram tissue): 57%
[16]; amorphous solid at room temperature, short term storage
  appearance after storage: the colour darkened
[16]; aqueous solution, after few days
  reduction of content in aqueous solution: 35%

## C[C@@H](c1ncncc1F)[C@](O)(Cn1cncn1)c1ccc(F)cc1F [Voriconazole]
C. albicans [17]
  MIC90: 0.03 µg/mL
C. dubliniensis
  MIC90: 0.016 µg/mL
C. glabrata [9]; 24 h
  MIC90: 0.125 µg/mL (≈ 0.358 µM)
C. krusei [10]
  MIC90: 0.5 µg/mL
C. lusitaniae [11]
  MIC90: 0.03 µg/mL
C. parapsilosis [12]; 24 h
  MIC90: 0.125 µg/mL (≈ 0.358 µM)
C. tropicalis
  MIC90: 0.03 µg/mL
A. flavus
  MIC50: 0.5 µg/mL (≈ 1.43 µM)
A. fumigatus
  MIC50: 0.25 µg/mL (≈ 0.716 µM)
A. nidulans
  MIC50: 0.125 µg/mL (≈ 0.358 µM)
A. niger
  MIC50: 1 µg/mL (≈ 2.86 µM)
A. terreus
  MIC50: 0.25 µg/mL (≈ 0.716 µM)
A. versicolor
  MIC50: 0.25 µg/mL (≈ 0.716 µM)
Coccidioides spp.
  MIC90: 0.125 µg/mL (≈ 0.358 µM)
B. dermatitidis
  MIC90: 0.25 µg/mL (≈ 0.716 µM)
H. capsulatum
  MIC90: 0.125 µg/mL (≈ 0.358 µM)
C. albicans [14]
  effect of oleic acid / stearic acid on susceptibility: oleic acid did not decrease the susceptibility
